Assay results published in patent US4714711A, “6-hydroxy-2(2-hydroxy-4-methoxyphenyl)benzofuran derivatives to inhibit leukotriene biosynthesis” (Merck & Co., Inc., priority 1986, dated 1987).
Values after ≈ are worked out from the molar mass of the structure shown.

Key:
thromboxane B2 = assay: Inhibition of CXBG prostoglandin (thromboxane B2) production (A23187-stimulated, enzyme immunoassay); format: cell-based, mice; settings: Mus musculus; CXBG cells, 2×10^6 cells/ml, inhibitor 5 minutes at 37°, A23187 stimulation 10 minutes; read-out: IC50 (μg/ml) Tx B2
Protocol: (§1) Representative compounds of Formula I have been tested using the following assay to determine their mammalian leukotriene biosynthesis inhibiting activity and other relevant activities:
(§2) CXBG cells grown intraperitoneally in CB4 B6 /F1 /J mice were washed 5 times in Dulbeccos phosphate buffered saline without calcium or magnesium, suspended in medium 199 (Gibco) at 2×10^6 cells/ml, and incubated 15 minutes at 37°. Inhibitor solutions in methanol were incubated with the cells (10μl/600 μl cells), for 5 minutes at 37°, and the cells were stimulated with 60 μl A23187 (50 μg/ml) for 10 minutes at 37°. Aliquots were removed for measurement of leukotriene C4 or thromboxane B2 by enzyme immunoassay as previously reported (D. K. Miller, et al., J. Immunological Methods, 81, 169-185, 1985). The percentage inhibition was calculated by the following: [formula]

leukotriene C4 = assay: Inhibition of CXBG leukotriene production (A23187-stimulated, enzyme immunoassay); format: cell-based, mice; settings: Mus musculus; CXBG cells, 2×10^6 cells/ml, inhibitor 5 minutes at 37°, A23187 stimulation 10 minutes; read-out: IC50 (μg/ml) LTC4
Protocol: as §1, §2

SMILES	IC50 (thromboxane B2) [µg/mL]	IC50 (leukotriene C4) [µg/mL]
COc1cc(O)ccc1-c1cc2ccc(O)cc2o1 [6-hydroxy-2-(2-methoxy-4-hydroxyphenyl)benzofuran]	1 (≈ 3.9 µM)	0.028 (≈ 0.109 µM)
COc1ccc(-c2cc3ccc(O)cc3o2)c(O)c1 [6-hydroxy-2-(hydroxy-4-methoxyphenyl)benzofuran]	0.3 (≈ 1.17 µM)	0.013 (≈ 0.0507 µM)
COc1ccc(-c2cc3cc(O)ccc3o2)c(O)c1 [5-hydroxy-2-(2-hydroxy-4-methoxyphenyl)benzofuran]	0.5 (≈ 1.95 µM)	0.75 (≈ 2.93 µM)
